Assay results reported in patent publication US20220009914A1, “Analogs of Nitrofuran Antibiotics to Combat Resistance” (The Trustees of Indiana University, priority 2020, published 2022).
pEC50: −log10 of the molar value.

How the values were obtained:
[1] = test system: Enterobacter cloacae strain CDC 442-68 (ATCC #13047); assay: bacterial proliferation assay, E. cloacae; format: cell-based; conditions: ATCC13047, read-out: Bacterial Proliferation EC50 E. cloacae
Description: All compounds were evaluated for inhibiting the proliferation of E. coli and each of the ESKAPE bacteria. Results presented represent the averages of EC50 values obtained from at least four replicates. Evaluating compounds for inhibition of bacterial cell proliferation.
Growth Media: E. coli were grown with LB medium and all ESKAPE bacteria were grown in Brain Heart Infusion (BHI) medium (Becton, Dickinson and Company), with all liquid cultures supplemented with 25 mg/L Ca^2+ and 12.5 mg/L Mg^2+ to mimic physiological free concentrations of these cations. A 10 mg/mL Ca^2+ stock solution was prepared by dissolving 1.84 g of CaCl2.2H2O in 50 mL of deionized water, and a 10 mg/mL Mg^2+ stock solution was prepared by dissolving 4.18 g of MgCl2.6H2O in 50 mL deionized water—filter sterilized using 0.2 μm cellulose-acetate filters. 2.5 mL of the sterile 10 mg/mL Ca^2+ stock and 1.25 mL of the sterile 10 mg/mL Mg^2+ stock solutions were added per 1 L of autoclaved LB or BHI media to obtain 25 mg/L Ca^2+ and 12.5 mg/L Mg^2+ ions, respectively.
General Assay Protocol: Stock bacterial cultures were streaked onto LB or BHI agar plates and grown overnight at 37° C. Fresh aliquots of cation supplemented media were inoculated with single bacterial colonies and the cultures were grown overnight at 37° C. with shaking (240 rpm). The following morning, cultures were diluted 10-fold into fresh media and grown at 37° C. until bacteria had reached mid-log phase growth (OD600˜0.4-0.6). The cultures were then diluted into fresh media to achieve final OD600 readings of 0.017. Aliquots of these diluted cultures (30 μL) were added to clear, flat-bottom 384-well polystyrene plates that were previously stamped with 0.5 μL of test compounds in 20 μL of media (yielding initial OD600=0.01 bacterial cultures). All compounds were tested in dose-response with concentration ranges during the proliferation assays from 100 μM to 46 nM (3-fold dilution series). A second set of baseline control plates were prepared analogously, but without any bacteria added, to correct for possible compound absorbance and/or precipitation. […] Plates were then read at 600 nm using a Molecular Devices SpectraMax Plus384 microplate reader. […] Results presented represent the averages of EC50 values obtained from at least four replicates.
Evaluating analogs for inhibiting the growth of E. coli and the ESKAPE bacteria. Analogs were initially tested for antibacterial efficacy against representative strains of antibiotic-sensitive E. coli and the ESKAPE bacteria. To determine compound efficacy, bacterial proliferation assays were carried out in liquid media culture supplemented with physiological concentrations of free calcium and magnesium cations. For these assays, bacterial cultures (OD600=0.01) were exposed to test compounds in 8-point, 3-fold dilution series (100 μM to 46 nM concentration range), in 384-well plates. After addition of compounds to cultures, the plates were sealed with Breathe-Easy gas permeable membranes and allowed to grow to mid-log phase (OD600˜0.4-0.6), whereupon final OD600 readings were taken to assess for bacterial growth and inhibition.

FHC colon cells = assay: Alamar Blue-based viability assay, human colon cells
Description: (§1) Evaluating compound effects on the viability of human colon and small intestine cells. […] Evaluating compound effects on the viability of human colon and small intestine cells. Evaluation of compound cytotoxicities to FHC colon and FHs 74 Int small intestine cells were performed using Alamar Blue-based viability assays. […] FHs 74 Int cells were maintained in Hybri-care medium (ATCC 46-X) supplemented with 30 ng/mL recombinant epidermal growth factor (EGF) and 10% FBS (Midwest Scientific, USDAFBS).

[2] = test system: FHs 74 Int small intestine cells; assay: in vitro
Description: as §1

NEB 5-alpha E. coli = assay: microbe, parasite or virus in culture; format: cell-based, Escherichia coli
Description: Evaluating the ability of E. coli to generate resistance to lead inhibitors. […] NEB 5-alpha E. coli bacteria were streaked onto an LB agar plate and grown overnight at 37° C. […] The overnight cultures were then sub-cultured (10× dilution) into fresh media solutions and grown at 37° C. to mid-log phase, then diluted into fresh media to achieve two separate cultures with final OD600 readings of 0.01. […] Test compounds were evaluated in duplicate with concentration ranges during the resistance assay from 100 μM to 48.8 nM, 2-fold dilution series. […] OD600 readings were taken at the 24 h time point to monitor for bacterial growth. A second baseline control plate was prepared analogously, without any bacteria added, to correct for possible compound absorbance and/or precipitation. For inoculations on subsequent days, bacteria from the wells with the highest test compound concentration where the OD600 was >0.2, were sub-cultured in 5 mL of fresh media at 37° C. until mid-log phase growth was reached. Separate cultures were maintained from this point forward for each of the compound replicates—i.e. 6 cultures continually propagated. The bacteria were then diluted into fresh media to OD600 of 0.01 and the bacteria were propagated again as described above.

[3] = test system: nifuroxazide resistant E. coli; format: cell-based, Escherichia coli

SMILES: O=C1CN(/N=C/c2ccc([N+](=O)[O-])o2)C(=O)N1 [Nitrofurantoin, reference compound]
- pEC50 [1]: 4.44
- SI (CC50/EC50) Colon (FHC colon cells; CC50 colon cells over EC50 E. coli proliferation): >146
- CC50 (FHC colon cells; human, 48 h): > 100 µM
- cytotoxicity to human cells in words [2]: low to no cytotoxicity
- SI (CC50/EC50) Intestine ([2]; CC50 intestine cells over EC50 E. coli proliferation): >146
- CC50 ([2]; human, 48 h): > 100 µM
- resistance of the maximally-resistant strain to its inhibitor after passaging without compound (NEB 5-alpha E. coli; 4×12 h serial passages without test compounds, then 24 h proliferation assay): still resistant
- pEC50 (NEB 5-alpha E. coli; Escherichia coli, read-out: EC50 plateau after intermediate resistance): 4.40 to 4.70
- response of nifuroxazide-resistant strains to the other inhibitor [3]: cross-resistant
